Source: patent US20130150363A1, “Method of Treating Cancer Using a cMET and AXL Inhibitor and an ErbB Inhibitor” (GlaxoSmithKline, priority 2008, published 2013)

Tests used:
Assay type in all cases: cell-based
[1] = tested on: A431 epidermal carcinoma cells; assay: Cell growth inhibition (CellTiter-Glo), A431; details: Homo sapiens, A-431, 72 h, 3 days
Description: (§1) Esophageal carcinoma cell line OE33 was purchased from ECACC European Collection of Cell Cultures (UK). Breast cancer cell line JIMT-1 and gastric carcinoma cell line MKN-45 were purchased from Deutsche Sammlung von Mikroorganismen and Zellkulturen GmbH (Germany); KPL-4, a human breast cancer cell line was kindly provided by Prof. J Kurebayashi (Kawasaki Medical School, Kurashiki, Japan). […] The LICR-LON-HN5 head and neck carcinoma cell line (HN5) was a gift from the Institute of Cancer Research, Surrey, U.K. HN5C12 was developed by single-cell cloning of HN5 followed by exposure to increasing concentrations of lapatinib. […] Cell growth inhibition was determined via CellTiter-Glo cell viability assays. […] BT474-J4 and HN5C12 were washed with PBS and plated in their culture media without lapatinib. […] ATP levels were determined by adding Cell Titer Glo0 (Promega), incubating for 20 minutes then the luminescent signal was read on the SpectraMax M5 plate with a 0.5 second integration time. Cell growth was calculated relative to vehicle (DMSO) treated control wells. […] y=([…]) where A is the minimum response (ymin), B is the maximum response (ymax), c is the inflection point of the curve (EC50), d is the Hill coefficient, and x is the log10 compound concentration (moles/L). CI values were calculated with the interpolated IC50 values and the mutually non-exclusive equation derived by Chou and […](a)+Db/IC50(b)+(Da×Db)/(IC50(a)×IC50(b)) where IC50(a) is the IC50 of the inhibitor A; IC50(b) is the IC50 for the inhibitor B; […] Excess Over Highest Single Agent (EOHSA) is defined as a statistically significant improvement in the combination compared to the component monotherapies. […] See Borisy et al. (2003) or Hung et al. (1993) for examples and discussion. Analysis was conducted using two-factor analysis of variance with interaction (model terms were dose of drug A, dose of drug B, and interaction between doses of drug A and B), followed by linear contrasts between each combination group and corresponding monotherapies. Analysis was conducted using SAS (version 9, provided by SAS Institute, Cary, N.C.). EOHSA at each dose was calculated as the minimum difference in average % inhibition between the combination and each monotherapy, from the appropriate ANOVA contrast. Since there are many comparisons for the % inhibition endpoint, p-value adjustment for multiple comparisons was performed. Hommel's procedure was implemented in order to improve the power while retaining […] Error Rate (FWE) control by using a sequentially rejective method. The p-values for both synergy and antagonism were calculated using this adjustment.

ovary_SKOV3 tumor cells = assay: Cell growth inhibition (CellTiter-Glo), SKOV3; details: Homo sapiens, SK-OV-3, 72 h, 3 days
Experimental: Cell growth inhibition was determined via CellTiter-Glo cell viability assays. […] BT474-J4 and HN5C12 were washed with PBS and plated in their culture media without lapatinib. […] ATP levels were determined by adding Cell Titer Glo0 (Promega), incubating for 20 minutes then the luminescent signal was read on the SpectraMax M5 plate with a 0.5 second integration time. Cell growth was calculated relative to vehicle (DMSO) treated control wells. […] y=([…]) where A is the minimum response (ymin), B is the maximum response (ymax), c is the inflection point of the curve (EC50), d is the Hill coefficient, and x is the log10 compound concentration (moles/L). CI values were calculated with the interpolated IC50 values and the mutually non-exclusive equation derived by Chou and […](a)+Db/IC50(b)+(Da×Db)/(IC50(a)×IC50(b)) where IC50(a) is the IC50 of the inhibitor A; IC50(b) is the IC50 for the inhibitor B; […] Excess Over Highest Single Agent (EOHSA) is defined as a statistically significant improvement in the combination compared to the component monotherapies. […] In statistical terms, the maximum of the p-value's for the two comparisons Aq+Br vs Aq and Aq+Br vs Br should be less than or equal to an appropriate cutoff, p≦0.05. EOHSA is a common approach for evaluating drug combinations, and is an FDA criterion (21 CRF 300.50) for combination drug approval. See Borisy et al. (2003) or Hung et al. (1993) for examples and discussion. Analysis was conducted using two-factor analysis of variance with interaction (model terms were dose of drug A, dose of drug B, and interaction between doses of drug A and B), followed by linear contrasts between each combination group and corresponding monotherapies. Analysis was conducted using SAS (version 9, provided by SAS Institute, Cary, N.C.). EOHSA at each dose was calculated as the minimum difference in average % inhibition between the combination and each monotherapy, from the appropriate ANOVA contrast. Since there are many comparisons for the % inhibition endpoint, p-value adjustment for multiple comparisons was performed. Hommel's procedure was implemented in order to improve the power while retaining […] Error Rate (FWE) control by using a sequentially rejective method. The p-values for both synergy and antagonism were calculated using this adjustment.

[2] = tested on: AGS gastric carcinoma cells; assay: Cell growth inhibition (CellTiter-Glo), AGS; details: Homo sapiens, 72 h, gastric_AGS, 3 days
Description: (§2) Esophageal carcinoma cell line OE33 was purchased from ECACC European Collection of Cell Cultures (UK). Breast cancer cell line JIMT-1 and gastric carcinoma cell line MKN-45 were purchased from Deutsche Sammlung von Mikroorganismen and Zellkulturen GmbH (Germany); KPL-4, a human breast cancer cell line was kindly provided by Prof. J Kurebayashi (Kawasaki Medical School, Kurashiki, Japan). […] The LICR-LON-HN5 head and neck carcinoma cell line (HN5) was a gift from the Institute of Cancer Research, Surrey, U.K. HN5C12 was developed by single-cell cloning of HN5 followed by exposure to increasing concentrations of lapatinib. […] Cell growth inhibition was determined via CellTiter-Glo cell viability assays. […] ATP levels were determined by adding Cell Titer Glo0 (Promega), incubating for 20 minutes then the luminescent signal was read on the SpectraMax M5 plate with a 0.5 second integration time. Cell growth was calculated relative to vehicle (DMSO) treated control wells. […] CI values were calculated with the interpolated IC50 values and the mutually non-exclusive equation derived by Chou and […](a)+Db/IC50(b)+(Da×Db)/(IC50(a)×IC50(b)) where IC50(a) is the IC50 of the inhibitor A; IC50(b) is the IC50 for the inhibitor B; […] […] EOHSA at each dose was calculated as the minimum difference in average % inhibition between the combination and each monotherapy, from the appropriate ANOVA contrast. […]

[3] = tested on: SCC12 head and neck squamous cell carcinoma cells; assay: Cell growth inhibition (CellTiter-Glo), SCC12; details: Homo sapiens, SCC12, 72 h, 3 days
Description: as §1

[4] = tested on: NCI-H1993 lung carcinoma cells; assay: Cell growth inhibition (CellTiter-Glo), NCI-H1993; details: Homo sapiens, NCI-H1993, 72 h, 3 days
Description: as §1

[5] = tested on: MKN-45 gastric carcinoma cells; assay: Cell growth inhibition (CellTiter-Glo), MKN-45; details: Homo sapiens, MKN-45, MKN-45 (HER3-over)
Description: as §2

Row | IC50 ([1]; skin_A431, +HGF (2 ng/mL)) [µM] | IC50 ([1]; skin_A431, −HGF) [µM] | IC50 (ovary_SKOV3 tumor cells; ovary_SKOV3, +HGF (2 ng/mL)) [µM] | IC50 (ovary_SKOV3 tumor cells; ovary_SKOV3, −HGF) [µM] | IC50 ([2]; +HGF (2 ng/mL)) [µM] | IC50 ([2]; −HGF) [µM] | IC50 ([3]; hn_SCC12, +HGF (2 ng/mL)) [µM] | IC50 ([3]; hn_SCC12, −HGF) [µM] | IC50 ([4]; lung_H1993, +HGF (2 ng/mL)) [µM] | IC50 ([4]; lung_H1993, −HGF) [µM] | IC50 ([5]; +HRG (10 ng/mL)) [µM] | IC50 ([5]; −HRG) [µM] | Structure (SMILES)
1 | > 10 | 3.22 | 5.39 | 5.62 | > 10 | > 10 | > 10 | > 10 | > 10 | 8.13 | – | – | C#Cc1cccc(Nc2ncnc3cc(OCCOC)c(OCCOC)cc23)c1 [Erlotinib, N-(3-ethynylphenyl)-6,7-bis{[2-(methyloxy)ethyl]oxy}-4-quinazolinamine]
2 | 4.6 | 2.19 | 5.67 | 5.02 | – | – | > 10 | > 10 | > 10 | > 10 | 5.06 | 6.16 | CS(=O)(=O)CCNCc1ccc(-c2ccc3ncnc(Nc4ccc(OCc5cccc(F)c5)c(Cl)c4)c3c2)o1 [Lapatinib, N-(3-chloro-4-{[(3-fluorophenyl)methyl]oxy}phenyl)-6-[5-({[2-(methylsulfonyl)ethyl]amino}methyl)-2-furanyl]-4-quinazolinamine]
